In the experiment the target is MAPK14 (human) (UniProt Q16539). Nature of the experiment: Inhibition of MAPK14 Kinase Activity.

The results in this text go back to the Kinase Knowledgebase extract (Sharma et al. 2016).

Molecules are shown by their SMILES.

Broadly, the IC50 is the concentration that gives 50% inhibition.

MAPK14 (human), sequence (Q16539 whole entry, looked up): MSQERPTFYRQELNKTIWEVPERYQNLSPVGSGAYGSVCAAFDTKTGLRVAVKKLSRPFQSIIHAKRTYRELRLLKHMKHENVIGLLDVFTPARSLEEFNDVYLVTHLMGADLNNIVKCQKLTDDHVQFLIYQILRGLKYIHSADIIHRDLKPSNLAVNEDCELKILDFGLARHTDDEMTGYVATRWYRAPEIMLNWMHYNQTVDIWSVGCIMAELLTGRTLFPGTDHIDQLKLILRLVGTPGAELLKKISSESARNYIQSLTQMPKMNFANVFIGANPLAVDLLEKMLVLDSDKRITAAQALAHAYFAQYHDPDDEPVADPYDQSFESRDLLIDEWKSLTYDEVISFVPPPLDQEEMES

Regarding `CC(C)NC(=O)c1csc(-c2c(-c3ccc(F)cc3)ncn2C2CCNCC2)n1`, the IC50 was no more than 1000 nM.

For `COc1ccccc1CC(=O)N1CCN(Cc2nc(-c3ccc(F)cc3)c(-c3nc(C(=O)NC(C)C)cs3)o2)CC1`, the IC50 is no more than 1000 nM.

`Cc1nc(-c2ccc(F)cc2)c(-c2nc(C(=O)N[C@H](C)c3ccccc3)cs2)s1` displayed a half-inhibitory concentration (IC50) of no more than 1000 nM.

In turn, `COC[C@H]1CCCN1C(=O)c1csc(-c2sc(C)nc2-c2ccc(F)cc2)n1` came in with an IC50 of no more than 1000 nM.

For the compound `CCCCOc1ccc(C(=O)N2CCC(c3[nH]nc(-c4ccc(F)cc4)c3-c3nc(C(=O)NC(C)C)cs3)CC2)cc1`, the IC50 is no more than 1000 nM.

Turning to `CC(C)NC(=O)c1csc(-c2oc(CNC(=O)c3ccc(F)cc3F)nc2-c2ccc(F)cc2)n1`, the IC50 was no more than 1000 nM.

On to `CC(C)NC(=O)c1csc(-c2oc(CN3CCN(C(=O)c4cc(O)c(O)c(O)c4)CC3)nc2-c2ccc(F)cc2)n1`, for which the IC50 is no more than 1000 nM.

As to `CC(C)NC(=O)c1csc(-c2oc(CN3CCN(C(=O)c4ccc5cccc(O)c5n4)CC3)nc2-c2ccc(F)cc2)n1`, the IC50 was no more than 1000 nM.

With `CC(C)NC(=O)c1csc(-c2c(-c3ccc(F)cc3)n[nH]c2C2CCN(C(=O)c3ccncc3Cl)CC2)n1`, the IC50 was no more than 1000 nM.

Consider `CC(C)NC(=O)c1csc(-c2c(-c3ccc(F)cc3)ncn2C)n1`, for which the IC50 is no more than 1000 nM.

The compound `Cc1nc(-c2ccc(F)cc2)c(-c2nc(C(=O)NCCc3ccccc3Cl)cs2)s1` came in with an IC50 of no more than 1000 nM.

`CC(C)NC(=O)c1csc(-c2oc(CNCc3ccccc3OC(F)(F)F)nc2-c2ccc(F)cc2)n1` gave an IC50 of no more than 1000 nM.

As for `COc1ccc(C=CC(=O)N2CCN(Cc3nc(-c4ccc(F)cc4)c(-c4nc(C(=O)NC(C)C)cs4)o3)CC2)cc1O`, the IC50 is no more than 1000 nM.

Compound `CC(C)NC(=O)c1csc(-c2[nH]c(CO)nc2-c2ccc(F)cc2)n1` showed an IC50 of no more than 1000 nM.

As for `Cc1[nH]nc(-c2ccc(F)cc2)c1-c1nc(C(=O)NCc2ccc3c(c2)OCO3)cs1`, the IC50 is no more than 1000 nM.

As to `Cc1nc(-c2ccc(F)cc2)c(-c2nc(C(=O)Nc3ccc4c(c3)OCO4)cs2)s1`, the IC50 is no more than 1000 nM.

In turn, `CC(C)NC(=O)c1csc(-c2c(-c3ccc(F)cc3)noc2CNCC#N)n1` showed an IC50 of no more than 1000 nM.

For `COc1cc(C(=O)NCc2nc(-c3ccc(F)cc3)c(-c3nc(C(=O)NC(C)C)cs3)o2)c([N+](=O)[O-])cc1OC`, the IC50 was no more than 1000 nM.

`C#CCNC(=O)c1csc(-c2c(-c3ccc(F)cc3)ncn2C)n1` gave an IC50 of no more than 1000 nM.

In turn, `CC(=O)N1CCC(n2cnc(-c3ccc(Cl)cc3)c2-c2nc(C(=O)NC(C)C)cs2)CC1` had an IC50 of no more than 1000 nM.

Compound `CC(C)NC(=O)c1csc(-c2oc(CNC(=O)c3cc(F)c(F)cc3Cl)nc2-c2ccc(F)cc2)n1` displayed an IC50 of no more than 1000 nM.

Compound `CCN(Cc1onc(-c2ccc(F)cc2)c1-c1nc(C(=O)NC(C)C)cs1)C(Cc1ccccc1)c1ccco1` (centres undefined) registered an IC50 of no more than 1000 nM.

The compound `COCCNCc1nc(-c2ccc(F)cc2)c(-c2nc(C(=O)NC(C)C)cs2)o1` displayed an IC50 of no more than 1000 nM.

For the compound `Cc1nc(-c2ccc(F)cc2)c(-c2nc(C(=O)NCCN3CCCC3)cs2)s1`, the concentration for half-maximal inhibition (IC50) is no more than 1000 nM.

`COc1cc(CNC(=O)c2csc(-c3sc(C)nc3-c3ccc(F)cc3)n2)cc(OC)c1` gave an IC50 of no more than 1000 nM.

The compound `COc1ccc(CNCc2nc(-c3ccc(F)cc3)c(-c3nc(C(=O)NC(C)C)cs3)o2)cc1O` returned an IC50 of no more than 1000 nM.

`COc1cc(OC)c(C(=O)NCc2nc(-c3ccc(F)cc3)c(-c3nc(C(=O)NC(C)C)cs3)o2)c(OC)c1` came in with an IC50 of no more than 1000 nM.

In turn, `CC(C)NC(=O)c1csc(-c2oc(CNC(=O)c3cc(Cl)ccc3[N+](=O)[O-])nc2-c2ccc(F)cc2)n1` showed an IC50 of no more than 1000 nM.

`CC(C)NC(=O)c1csc(-c2oc(CN3CCN(C(=O)Cc4ccccc4O)CC3)nc2-c2ccc(F)cc2)n1` had an IC50 of no more than 1000 nM.

In turn, `CC(C)NC(=O)c1csc(-c2c(-c3ccc(F)cc3)noc2CNC(=O)c2ccc([N+](=O)[O-])cc2Cl)n1` yielded an IC50 of no more than 1000 nM.

For the compound `CC(C)NC(=O)c1csc(-c2oc(CN3CCNCC3)nc2-c2ccc(F)cc2)n1`, the IC50 was no more than 1000 nM.

In turn, `Cc1cccc(N2CCN(C(=O)c3csc(-c4sc(C)nc4-c4ccc(F)cc4)n3)CC2C)c1` (centres undefined) came in with an IC50 of no more than 1000 nM.

Compound `CC(C)NC(=O)c1csc(-c2c(-c3ccc(F)cc3)n[nH]c2C2CCN(C(=O)c3ccncc3)CC2)n1` came in with an IC50 of no more than 1000 nM.

Regarding `CC(C)C(CO)NC(=O)c1csc(-c2c(-c3ccc(F)cc3)n[nH]c2C2CCNCC2)n1` (centres undefined), the IC50 was no more than 1000 nM.

In turn, `CCC(C)NC(=O)n1ccc(-c2c(-c3ccc(Cl)cc3)noc2C)n1` (centres undefined) yielded an IC50 of no more than 1000 nM.

`CCNC(=O)c1csc(-c2c(-c3ccc(F)cc3)n[nH]c2C2CCN(C(=O)CO)CC2)n1` registered an IC50 of no more than 1000 nM.

`CC(C)NC(=O)c1csc(-c2oc(CN3CCN(C(=O)C(Cc4ccc(O)cc4)NC(=O)OC(C)(C)C)CC3)nc2-c2ccc(F)cc2)n1` (centres undefined) came in with an IC50 of no more than 1000 nM.

In turn, `Cc1cnc(CNC(=O)c2csc(-c3sc(C)nc3-c3ccc(F)cc3)n2)cn1` showed an IC50 of no more than 1000 nM.

`CC(C)NC(=O)c1csc(-c2oc(CNC(=O)c3cc4cc(Cl)ccc4o3)nc2-c2ccc(F)cc2)n1` had an IC50 of no more than 1000 nM.

`CC(C)NC(=O)c1csc(-c2oc(CN3CCN(C(=O)Cc4ccc(Br)cc4)CC3)nc2-c2ccc(F)cc2)n1` gave an IC50 of no more than 1000 nM.

In turn, `CC(C)NC(=O)c1csc(-c2oc(CNC(=O)c3cccnc3)nc2-c2ccc(F)cc2)n1` registered an IC50 of no more than 1000 nM.

`CC(C)NC(=O)c1csc(-c2c(-c3ccc(F)cc3)n[nH]c2C2CCN(C(=O)C(O)CCl)CC2)n1` (centres undefined): the IC50 is no more than 1000 nM.

On to `N#CCNC(=O)c1csc(-c2c(-c3ccc(F)cc3)n[nH]c2C2CCNCC2)n1`, for which the IC50 was no more than 1000 nM.

The compound `Cc1nc(-c2ccc(F)cc2)c(-c2nc(C(=O)NC(C)C)cs2)s1` came in with an IC50 of no more than 1000 nM.

As to `CC(C)NC(=O)c1csc(-c2c(-c3ccc(F)cc3)n[nH]c2C2CCN(C(=O)c3cccc4ccccc34)CC2)n1`, the IC50 was no more than 1000 nM.

In the case of `CC(=O)c1ccc(C(=O)NCc2nc(-c3ccc(F)cc3)c(-c3nc(C(=O)NC(C)C)cs3)o2)cc1`, the IC50 is no more than 1000 nM.

`CC(C)NC(=O)c1csc(-c2c(-c3ccc(F)cc3)n[nH]c2C2CCN(C(=O)c3ccccc3)CC2)n1` displayed an IC50 of no more than 1000 nM.

For the compound `CC(C)NC(=O)c1csc(-c2oc(CNC(=O)c3cc(Br)ccc3Cl)nc2-c2ccc(F)cc2)n1`, the IC50 was no more than 1000 nM.

`COc1ccc(C(=O)N2CCN(Cc3nc(-c4ccc(F)cc4)c(-c4nc(C(=O)NC(C)C)cs4)o3)CC2)c(OC)c1` yielded an IC50 of no more than 1000 nM.

For the compound `CC(C)NC(=O)c1csc(-c2c(-c3ccc(F)cc3)n[nH]c2C2CCNCC2)n1`, the IC50 is no more than 1000 nM.

For the compound `Cc1onc(-c2ccc(Cl)cc2)c1-c1cc(C)n(C(=O)NC(C)C)n1`, the IC50 is no more than 1000 nM.

Consider `Cc1cc(C)c(C(=O)N2CCN(Cc3nc(-c4ccc(F)cc4)c(-c4nc(C(=O)NC(C)C)cs4)o3)CC2)c(C)c1`, for which the IC50 was no more than 1000 nM.

For the compound `CC(C)NC(=O)c1csc(-c2oc(CN3CCN(C(=O)C=Cc4ccccc4O)CC3)nc2-c2ccc(F)cc2)n1`, the IC50 was no more than 1000 nM.

In turn, `CC(C)NC(=O)c1csc(-c2oc(CN3CCN(C(=O)c4ccc(Oc5ccccc5)cc4)CC3)nc2-c2ccc(F)cc2)n1` yielded an IC50 of no more than 1000 nM.

The compound `CC(C)NC(=O)c1csc(-c2c(-c3ccc(F)cc3)n[nH]c2C2CCN(C(=O)CC#N)CC2)n1` had an IC50 of no more than 1000 nM.

In turn, `COc1ccccc1CCNC(=O)c1csc(-c2sc(C)nc2-c2ccc(F)cc2)n1` showed an IC50 of no more than 1000 nM.

Take `CC(C)NC(=O)c1csc(-c2c(-c3ccc(F)cc3)n[nH]c2C2CCN(C(=O)C(C(C)C)N(C)C(=O)OC(C)(C)C)CC2)n1` (centres undefined): the IC50 is no more than 1000 nM.

For `CC(=O)N1CCC(c2[nH]nc(-c3ccc(F)cc3)c2-c2nc(C(=O)NC(C)C)cs2)CC1`, the IC50 is no more than 1000 nM.

`CC(C)NC(=O)c1csc(-c2oc(CNC(=O)C3CCCO3)nc2-c2ccc(F)cc2)n1` (centres undefined) displayed an IC50 of no more than 1000 nM.

Take `CC(C)NC(=O)c1coc(-c2c(-c3ccc(F)cc3)noc2C2CCNCC2)n1`: the IC50 was no more than 1000 nM.

Compound `Cc1ccc(C(=O)N2CCN(Cc3nc(-c4ccc(F)cc4)c(-c4nc(C(=O)NC(C)C)cs4)o3)CC2)c(C)c1` gave an IC50 of no more than 1000 nM.

`CC(C)NC(=O)c1csc(-c2oc(CNC(=O)c3cc([N+](=O)[O-])ccc3O)nc2-c2ccc(F)cc2)n1` yielded an IC50 of no more than 1000 nM.

`Cc1nc(-c2ccc(F)cc2)c(-c2nc(C(=O)NCc3ccc(C(F)(F)F)cc3)cs2)s1` had an IC50 of no more than 1000 nM.

`CC(=O)Nc1cccc(C(=O)N2CCN(Cc3nc(-c4ccc(F)cc4)c(-c4nc(C(=O)NC(C)C)cs4)o3)CC2)c1`: the IC50 is no more than 1000 nM.

For the compound `CC(C)NC(=O)c1csc(-c2oc(CN3CCN(C(=O)c4ccc(N(C)C=O)cc4)CC3)nc2-c2ccc(F)cc2)n1`, the IC50 is no more than 1000 nM.

`Cc1nc(-c2ccc(F)cc2)c(-c2nc(C(=O)N3CCCC3CO)cs2)s1` (centres undefined): the IC50 is no more than 1000 nM.

For `COCC(C)NC(=O)c1csc(-c2sc(C)nc2-c2ccc(F)cc2)n1` (centres undefined), the IC50 is no more than 1000 nM.

As to `Cc1nc(-c2ccc(F)cc2)c(-c2nc(C(=O)NC3CCCCC3)cs2)s1`, the IC50 is no more than 1000 nM.

On to `COc1ccc2cc(C(C)C(=O)NCc3nc(-c4ccc(F)cc4)c(-c4nc(C(=O)NC(C)C)cs4)o3)ccc2c1` (centres undefined), for which the IC50 is no more than 1000 nM.

On to `COc1ccccc1NC(=O)c1csc(-c2sc(C)nc2-c2ccc(F)cc2)n1`, for which the IC50 was no more than 1000 nM.

In turn, `Cc1nc(-c2ccc(F)cc2)c(-c2nc(C(=O)NCCCN3CCCC3=O)cs2)s1` registered an IC50 of no more than 1000 nM.

The compound `Cc1nc(-c2ccc(F)cc2)c(-c2nc(C(=O)NCCc3cccc(F)c3)cs2)s1` had an IC50 of no more than 1000 nM.

For `CC(C)NC(=O)c1csc(-c2c(-c3ccc(F)cc3)n[nH]c2C2CCN(C(=O)c3ccccc3C=O)CC2)n1`, the concentration for half-maximal inhibition (IC50) is no more than 1000 nM.

On to `COc1cc(CN(C)C(=O)c2csc(-c3sc(C)nc3-c3ccc(F)cc3)n2)cc(OC)c1OC`, for which the IC50 was no more than 1000 nM.

Regarding `CC(C)NC(=O)c1csc(-c2c(-c3ccc(F)cc3)noc2CN(C)CCc2ccccn2)n1`, the IC50 is no more than 1000 nM.

`Cc1nc(-c2ccc(F)cc2)c(-c2nc(C(=O)NCC3CCCO3)cs2)s1` (centres undefined): the IC50 is no more than 1000 nM.

As for `Cc1nc(-c2ccc(F)cc2)c(-c2nc(C(=O)NC3CCC(C)CC3)cs2)s1` (centres undefined), the half-maximal inhibitory concentration (IC50) is no more than 1000 nM.

On to `Cc1nc(-c2ccc(F)cc2)c(-c2nc(C(=O)NCc3ccccn3)cs2)s1`, for which the IC50 is no more than 1000 nM.

The compound `CC(C)NC(=O)c1csc(-c2oc(CNC(=O)c3cncc(Br)c3)nc2-c2ccc(F)cc2)n1` gave an IC50 of no more than 1000 nM.
